Source: ChEMBL document CHEMBL5154876, “Design, synthesis and promising anti-tumor efficacy of novel imidazo[1,2-a]pyridine derivatives as potent autotaxin allosteric inhibitors” (Eur J Med Chem, 2022)
Active and inactive are the calls of the source. No cut-off for these calls is given here.

How the values were obtained:
Hep 3B2 = assay: Cytotoxicity against human Hep3B cells assessed as inhibition of cell growth incubated for 72 hrs by MTT assay; assay type: functional, cell-based
RAW264.7 [1] = assay: Induction of cell cycle arrest in mouse RAW264.7 cells assessed as accumulation of cells in G2 phase at 0.1 uM incubated for 24 hrs by PI/RNase staining based flow cytometric analysis (RVB = 10.90%); assay type: functional
RAW264.7 [2] = assay: Induction of apoptosis in mouse RAW264.7 cells assessed as early apoptotic cells at 0.1 uM after 48 hrs by Annexin V-FITC/PI based flow cytometric analysis (RVB=5.57%); assay type: functional
RAW264.7 [3] = assay: Induction of cell cycle arrest in mouse RAW264.7 cells assessed as accumulation of cells in G1 phase at 0.5 uM incubated for 24 hrs by PI/RNase staining based flow cytometric analysis (RVB = 55.06%); assay type: functional
RAW264.7 [4] = assay: Inhibition of colony formation in mouse RAW264.7 cells assessed as reduction in colony single area at 0.1 to 1 uM incubated for 72 hrs by crystal violet staining method; assay type: functional, cell-based; settings: dose 0.1-1 µM
RAW264.7 [5] = assay: Induction of apoptosis in mouse RAW264.7 cells assessed as late apoptotic cells at 0.1 uM after 48 hrs by Annexin V-FITC/PI based flow cytometric analysis (RVB=0.098%); assay type: functional
RAW264.7 [6] = assay: Induction of apoptosis in mouse RAW264.7 cells assessed as early apoptotic cells at 0.25 uM after 48 hrs by Annexin V-FITC/PI based flow cytometric analysis (RVB=5.57%); assay type: functional
RAW264.7 [7] = assay: Induction of cell cycle arrest in mouse RAW264.7 cells assessed as accumulation of cells in G1 phase at 0.25 uM incubated for 24 hrs by PI/RNase staining based flow cytometric analysis (RVB = 55.06%); assay type: functional
RAW264.7 [8] = assay: Induction of cell cycle arrest in mouse RAW264.7 cells assessed as accumulation of cells in S phase at 0.5 uM incubated for 24 hrs by PI/RNase staining based flow cytometric analysis (RVB = 34.03%); assay type: functional
MDA-MB-231 = assay: Cytotoxicity against human MDA-MB-231 cells assessed as inhibition of cell growth incubated for 72 hrs by MTT assay; assay type: functional, cell-based; settings: MDA-MB-231, 72 h
RAW264.7 [9] = assay: Induction of apoptosis in mouse RAW264.7 cells assessed as viable cells at 1 uM after 48 hrs by Annexin V-FITC/PI based flow cytometric analysis (RVB=94.1%); assay type: functional; settings: read-out: Activity
MCF7 = assay: Cytotoxicity against human MCF-7 cells assessed as inhibition of cell growth incubated for 72 hrs by MTT assay; assay type: functional, cell-based; settings: MCF7, 72 h
RAW264.7 [10] = assay: Induction of apoptosis in mouse RAW264.7 cells assessed as necrotic cells at 0.1 uM after 48 hrs by Annexin V-FITC/PI based flow cytometric analysis (RVB=0.26%); assay type: functional
RAW264.7 [11] = assay: Induction of cell cycle arrest in mouse RAW264.7 cells assessed as accumulation of cells in S phase at 1 uM incubated for 24 hrs by PI/RNase staining based flow cytometric analysis (RVB = 34.03%); assay type: functional
RAW264.7 [12] = assay: Induction of cell cycle arrest in mouse RAW264.7 cells assessed as accumulation of cells in S phase at 0.25 uM incubated for 24 hrs by PI/RNase staining based flow cytometric analysis (RVB = 34.03%); assay type: functional
RAW264.7 [13] = assay: Induction of apoptosis in mouse RAW264.7 cells assessed as viable cells at 0.5 uM after 48 hrs by Annexin V-FITC/PI based flow cytometric analysis (RVB=94.1%); assay type: functional; settings: read-out: Activity
RAW264.7 [14] = assay: Induction of apoptosis in mouse RAW264.7 cells assessed as viable cells at 0.1 uM after 48 hrs by Annexin V-FITC/PI based flow cytometric analysis (RVB=94.1%); assay type: functional; settings: read-out: Activity
RAW264.7 [15] = assay: Induction of apoptosis in mouse RAW264.7 cells assessed as necrotic cells at 0.25 uM after 48 hrs by Annexin V-FITC/PI based flow cytometric analysis (RVB=0.26%); assay type: functional
RAW264.7 [16] = assay: Induction of apoptosis in mouse RAW264.7 cells assessed as late apoptotic cells at 0.25 uM after 48 hrs by Annexin V-FITC/PI based flow cytometric analysis (RVB=0.098%); assay type: functional
RAW264.7 [17] = assay: Induction of apoptosis in mouse RAW264.7 cells assessed as early apoptotic cells at 0.5 uM after 48 hrs by Annexin V-FITC/PI based flow cytometric analysis (RVB=5.57%); assay type: functional
RAW264.7 [18] = assay: Inhibition of colony formation in mouse RAW264.7 cells assessed as reduction in colony count at 0.1 to 1 uM incubated for 72 hrs by crystal violet staining method; assay type: functional, cell-based; settings: dose 0.1-1 µM
RAW264.7 [19] = assay: Antimigratory activity against mouse RAW264.7 cells assessed as decrease in cell migration rate measured upto 72 hrs by scratch wound healing assay; assay type: functional, cell-based; settings: DDE = dose-dependent effect
RAW264.7 [20] = assay: Induction of cell cycle arrest in mouse RAW264.7 cells assessed as accumulation of cells in G2 phase at 0.5 uM incubated for 24 hrs by PI/RNase staining based flow cytometric analysis (RVB = 10.90%); assay type: functional
RAW264.7 [21] = assay: Induction of apoptosis in mouse RAW264.7 cells assessed as viable cells at 0.25 uM after 48 hrs by Annexin V-FITC/PI based flow cytometric analysis (RVB=94.1%); assay type: functional; settings: read-out: Activity
NCI-H2228 = assay: Cytotoxicity against human H2228 cells assessed as inhibition of cell growth incubated for 72 hrs by MTT assay; assay type: functional, cell-based; settings: NCI-H2228, 72 h
RAW264.7 [22] = assay: Cytotoxicity against mouse RAW264.7 cells assessed as inhibition of cell growth incubated for 72 hrs by MTT assay; assay type: functional, cell-based; settings: RAW264.7, 72 h
RAW264.7 [23] = assay: Induction of apoptosis in mouse RAW264.7 cells assessed as late apoptotic cells at 0.5 uM after 48 hrs by Annexin V-FITC/PI based flow cytometric analysis (RVB=0.098%); assay type: functional
RAW264.7 [24] = assay: Induction of apoptosis in mouse RAW264.7 cells assessed as apoptotic cells by measuring blue fluorescence after 48 hrs by Hoechst33342 staining based fluorescence microscopy; assay type: functional, cell-based; settings: dose 0.1-1 µM, DDE = dose-dependent effect
[25] = Acute toxicity in C57BL/6J mouse assessed as safety concern at 1000 to 5000 mg/kg measured after 14 days; assay type: organism-based; settings: in vivo, 336 h, dose 1000-5000 mg/kg, time 14 day
RAW264.7 [26] = assay: Induction of apoptosis in mouse RAW264.7 cells assessed as early apoptotic cells at 1 uM after 48 hrs by Annexin V-FITC/PI based flow cytometric analysis (RVB=5.57%); assay type: functional
A549 = assay: Cytotoxicity against human A549 cells assessed as inhibition of cell growth incubated for 72 hrs by MTT assay; assay type: functional, cell-based; settings: A549, 72 h
RAW264.7 [27] = assay: Induction of cell cycle arrest in mouse RAW264.7 cells assessed as accumulation of cells in G2 phase at 0.25 uM incubated for 24 hrs by PI/RNase staining based flow cytometric analysis (RVB = 10.90%); assay type: functional
RAW264.7 [28] = assay: Induction of cell cycle arrest in mouse RAW264.7 cells assessed as accumulation of cells in S phase at 0.1 uM incubated for 24 hrs by PI/RNase staining based flow cytometric analysis (RVB = 34.03%); assay type: functional
RAW264.7 [29] = assay: Induction of apoptosis in mouse RAW264.7 cells assessed as apoptotic cells measured after 48 hrs by acridine orange/ethidium bromide staining based fluorescence microscopy; assay type: functional, cell-based; settings: dose 0.1-1 µM, DDE = dose-dependent effect

For `CCc1nc2c(C)cc(-c3ccc(CN4CCN(CCO)CC4)cc3)cn2c1NC(=O)OCc1cc(Cl)cc(Cl)c1`, the IC50 (Hep 3B2) was 0.58 µM, the Activity (RAW264.7 [1]) was 59.56% and the Activity (RAW264.7 [2]) was 6.04%. The Activity (RAW264.7 [3]) was 21.13%, the inhibition (RAW264.7 [4]) was “Active” and the Activity (RAW264.7 [5]) was 0.44%. The Activity (RAW264.7 [6]) was 6%, the Activity (RAW264.7 [7]) was 10.61% and the Activity (RAW264.7 [8]) was 4.78%. For the same molecule, the IC50 (MDA-MB-231) was 3.29 µM, the viability at 1 µM (RAW264.7 [9]) was 90% and the IC50 (MCF7) was 3.87 µM. It also gave an Activity (RAW264.7 [10]) of 0.68%, an Activity (RAW264.7 [11]) of 2.63% and an Activity (RAW264.7 [12]) of 18.57%. The viability at 0.5 µM (RAW264.7 [13]) was 90.4%, the viability at 0.1 µM (RAW264.7 [14]) was 92.8% and the Activity (RAW264.7 [15]) was 0.28%. For the same molecule, the Activity (RAW264.7 [16]) was 1.73%, the Activity (RAW264.7 [17]) was 7.65% and the inhibition (RAW264.7 [18]) was “Active”. The Activity (RAW264.7 [19]) was “Dde”, the Activity (RAW264.7 [20]) was 74.09% and the viability at 0.25 µM (RAW264.7 [21]) was 92%. For the same molecule, the IC50 (NCI-H2228) was 4.27 µM, the IC50 (RAW264.7 [22]) was 0.63 µM and the Activity (RAW264.7 [23]) was 0.95%. The Activity (RAW264.7 [24]) was “Dde”, the Activity [25] was “Non-Toxic” and the Activity (RAW264.7 [26]) was 8.43%. It also gave an IC50 (A549) of 6.59 µM, an Activity (RAW264.7 [27]) of 70.82% and an Activity (RAW264.7 [28]) of 25.72%. For the same molecule, the Activity (RAW264.7 [29]) was “Dde”.
